Assay results published in US20230055237A1, “COMPOUNDS AND METHODS FOR THE TREATMENT OF CYSTIC FIBROSIS” (Flatley Discovery Lab, LLC, priority 2019, published 2023).

Molecular target: T1, CFTR (Homo sapiens, UniProt P13569, DEL508-508)
T1 construct: Primary CF airway epithelial cells were obtained from the UNC Cystic Fibrosis Tissue Procurement and Cell Culture Core; host or cells: primary CF airway epithelial cells, differentiated at the air-liquid interface
Assay: Equivalent current assay in primary CF airway epithelial cells (NAUC, combination with 1st site corrector FDL169 or VX-809)
Type: cell-based
Conditions: 37° C., 24 h; for Nauc @ 1 μM: test compound 1 μM in combination with 1st site corrector VX-809 (3 μM); for Nauc @ 3 μM: test compound 3 μM in combination with 1st site corrector VX-809 (3 μM); for Nauc @ 10 μM: test compound 10 μM in combination with 1st site corrector VX-809 (3 μM)

T1 sequence (P13569 with tags, fused parts or gaps DEL508-508): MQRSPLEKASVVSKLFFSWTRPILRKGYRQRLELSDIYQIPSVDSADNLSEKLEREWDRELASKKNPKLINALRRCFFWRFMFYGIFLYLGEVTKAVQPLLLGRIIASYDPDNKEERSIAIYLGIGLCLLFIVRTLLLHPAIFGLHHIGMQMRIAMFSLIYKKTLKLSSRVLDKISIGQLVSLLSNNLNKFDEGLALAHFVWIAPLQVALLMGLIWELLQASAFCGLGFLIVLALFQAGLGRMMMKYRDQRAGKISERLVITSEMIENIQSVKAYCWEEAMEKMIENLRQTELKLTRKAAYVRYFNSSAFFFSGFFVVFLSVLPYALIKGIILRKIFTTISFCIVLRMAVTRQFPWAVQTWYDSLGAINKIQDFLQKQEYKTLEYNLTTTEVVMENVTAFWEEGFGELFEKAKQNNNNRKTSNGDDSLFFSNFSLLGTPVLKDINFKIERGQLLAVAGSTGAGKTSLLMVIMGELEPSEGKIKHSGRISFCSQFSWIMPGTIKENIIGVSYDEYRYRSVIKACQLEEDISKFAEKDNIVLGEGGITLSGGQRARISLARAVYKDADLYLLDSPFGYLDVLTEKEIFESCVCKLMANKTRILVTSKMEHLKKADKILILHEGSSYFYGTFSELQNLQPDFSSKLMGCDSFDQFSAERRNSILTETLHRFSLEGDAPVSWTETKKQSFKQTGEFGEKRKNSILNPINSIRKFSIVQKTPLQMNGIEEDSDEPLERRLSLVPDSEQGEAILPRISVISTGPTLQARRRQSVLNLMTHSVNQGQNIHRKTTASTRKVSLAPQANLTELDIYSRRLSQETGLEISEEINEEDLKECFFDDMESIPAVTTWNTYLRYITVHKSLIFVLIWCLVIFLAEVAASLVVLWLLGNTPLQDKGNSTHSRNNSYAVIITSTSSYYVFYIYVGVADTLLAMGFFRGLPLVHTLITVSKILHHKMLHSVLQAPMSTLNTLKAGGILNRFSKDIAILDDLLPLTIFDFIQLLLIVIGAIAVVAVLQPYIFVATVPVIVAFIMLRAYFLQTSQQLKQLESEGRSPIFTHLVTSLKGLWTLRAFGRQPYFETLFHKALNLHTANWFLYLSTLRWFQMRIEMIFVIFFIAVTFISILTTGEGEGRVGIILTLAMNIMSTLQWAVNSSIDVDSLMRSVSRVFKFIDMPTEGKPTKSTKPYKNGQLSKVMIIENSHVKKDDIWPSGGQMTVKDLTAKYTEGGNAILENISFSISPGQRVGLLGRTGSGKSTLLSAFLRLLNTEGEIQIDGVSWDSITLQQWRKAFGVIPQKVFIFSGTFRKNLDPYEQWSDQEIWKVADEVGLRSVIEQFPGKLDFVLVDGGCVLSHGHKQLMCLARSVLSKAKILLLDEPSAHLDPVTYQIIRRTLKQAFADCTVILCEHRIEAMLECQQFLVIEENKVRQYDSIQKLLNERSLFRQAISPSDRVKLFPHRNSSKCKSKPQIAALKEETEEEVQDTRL

SMILES: CN(C(=O)[C@H]1[C@H]2CC(F)(F)CN2C2(C(=O)Nc3c(Cl)cc(Cl)cc32)[C@H]1C(=O)O)c1cccc(C(F)(F)F)n1 (stereo partly shown) [Example 292]
- Nauc @ 1 μM: ++ (NAUC “++” refers to an observed NAUC 170-140% of positive control)
- Nauc @ 3 μM: +++ (NAUC “+++” refers to an observed NAUC>170% of positive control)
- Nauc @ 10 μM: +++ (NAUC “+++” refers to an observed NAUC>170% of positive control)

SMILES: CC(C)(CO)c1cccc(CCNC(=O)[C@H]2[C@H]3CC(F)(F)CN3C3(C(=O)Nc4c(Cl)cc(Cl)cc43)[C@H]2C(=O)O)c1 (stereo partly shown) [Example 293]
- Nauc @ 10 μM: + (NAUC “+” refers to an observed NAUC <140% of positive control)

SMILES: CC(C)(C)c1cccc(C2(CNC(=O)[C@H]3[C@H]4CC(F)(F)CN4C4(C(=O)Nc5c(Cl)cc(Cl)cc54)[C@H]3C(=O)O)CC2)c1 (stereo partly shown) [Example 294]
- Nauc @ 1 μM: + (NAUC “+” refers to an observed NAUC <140% of positive control)
- Nauc @ 3 μM: +++ (NAUC “+++” refers to an observed NAUC>170% of positive control)
- Nauc @ 10 μM: +++ (NAUC “+++” refers to an observed NAUC>170% of positive control)
